Counter-ions that a name gives are not always drawn. Like-named read-outs stand apart in the source and are kept apart here.
System: PRKACA-PRKAR2A interaction (SmBiT-PRKACA / LgBiT-PRKAR2A), protein kinase A
Parameters: NanoLuc complementation counter-screen in cell extract, PRKACA with PRKAR2A, loss of luminescence, detects NanoLuc interference
Settings: 0.5 h, 20 µM, inhibitor
[1] = counter-screen for NanoLuc interference
[2] = counter-screen for NanoLuc interference, Inh (PKA)

Row | Structure (SMILES) | Inh (PKA) [1] [%] | other results
1 | O=C(O[C@H]1C[N+]2(CCCOc3ccccc3)CCC1CC2)C(O)(c1cccs1)c1cccs1 [UM0142325:01, Aclidinium Bromide] | 1.77 | 
2 | NC(=S)N/N=C/c1ncccc1N [UM0142496:01, Triapine] | 0.417 | 
3 | CC(c1cc2ccccc2s1)N(O)C(N)=O (stereo not drawn) [UM0141885:01, Zileuton] | 2.302 | 
4 | Cn1cc(-c2cnn3c(N)c(Br)c([C@@H]4CCCNC4)nc23)cn1 [UM0142059:01, MK-8776 (SCH-900776)] | 4.838 | 
5 | CO[C@H]1C[C@@H]2CC[C@@H](C)[C@@](O)(O2)C(=O)C(=O)N2CCCC[C@H]2C(=O)O[C@H]([C@H](C)C[C@@H]2CC[C@@H](OC(=O)C(C)(CO)CO)[C@H](OC)C2)CC(=O)[C@H](C)/C=C(\C)[C@@H](O)[C@@H](OC)C(=O)[C@H](C)C[C@H](C)/C=C/C=C/C=C/1C [UM0135484:03, Temsirolimus] | 1.626 | 
6 | CC1(C)[C@@H](OC(=O)CCC(=O)O)CC[C@]2(C)[C@H]3C(=O)C=C4[C@@H]5C[C@@](C)(C(=O)O)CC[C@]5(C)CC[C@@]4(C)[C@]3(C)CC[C@@H]12 [UM0134288:02, Carbenoxolone disodium] | 9.677 | 
7 | CC(C)SC(=N)N [UM0142772:01, S-Isopropylisothiourea hydrobromide] | 0.4324 | 
8 | O=C1CCc2c(ccc3ccccc23)O1 [UM0128542:02, Splitomicin] | 1.175 | 
9 | COc1ccc2c3c1O[C@H]1C[C@@H](O)C=C[C@@]31CCN(C)C2 [UM0141554:01, Galanthamine] |  | Inh (PKA) [2]: 0.2093%
10 | Nc1c2c(nc3ccccc13)CCCC2 [UM0118625:03, Tacrine hydrochloride] | 1.154 | 
11 | COC(=O)N[C@H](C(=O)N[C@@H](Cc1ccccc1)[C@@H](O)CN(Cc1ccc(-c2ccccn2)cc1)NC(=O)[C@@H](NC(=O)OC)C(C)(C)C)C(C)(C)C [UM0141677:01, Atazanavir sulfate (BMS-232632-05)] |  | Inh (PKA) [2]: 2.404%
12 | N=C(N)NC(=O)Cc1c(Cl)cccc1Cl [UM0141560:01, Guanfacine hydrochloride] | 4.541 | 
13 | Cc1cc(Nc2cc(N3CCN(C)CC3)nc(/C=C/c3ccccc3)n2)n[nH]1 [UM0141724:01, ENMD-2076 L-(+)-Tartaric acid] |  | Inh (PKA) [2]: 17.98%
14 | CC(C)C[C@H](NC(=O)[C@H](CCc1ccccc1)NC(=O)CN1CCOCC1)C(=O)N[C@@H](Cc1ccccc1)C(=O)N[C@@H](CC(C)C)C(=O)[C@@]1(C)CO1 [UM0141433:01, Carfilzomib (PR-171)] | 0.3082 | 
15 | CC(C)(C)NC(=O)[C@H]1CC[C@H]2[C@@H]3CC[C@H]4NC(=O)C=C[C@]4(C)[C@H]3CC[C@]12C [UM0133719:02, Finasteride] | 1.602 | 
16 | NC[C@H]1CC[C@H](C(=O)O)CC1 [UM0142384:01, Tranexamic Acid] | 2.588 | 
17 | CC(=O)N[C@@H](CC(C)C)C(=O)N[C@@H](CC(C)C)C(=O)N[C@H](C=O)CCCNC(=N)N [UM0141467:01, Leupeptin, Microbial] | 0.9653 | 
18 | O=c1c(O)c(-c2ccc(O)c(O)c2)oc2cc(O)cc(O)c12 [UM0133552:02, Quercetin dihydrate] |  | Inh (PKA) [2]: 33.9%
19 | Cc1snnc1-c1ccccc1 [UM0142838:01, 4-phenyl-5-methyl-1,2,3-Thiadiazole] | 0.1553 | 
20 | NS(=O)(=O)c1cc2c(cc1Cl)N=CNS2(=O)=O [UM0133622:02, Chlorothiazide] | 0.9686 | 
21 | COc1ccc2c3c1O[C@H]1C[C@@H](O)C=C[C@@]31CCN(C)C2 [UM0132882:02, Galanthamine HBr] |  | Inh (PKA) [2]: 0.1906%
22 | CC1=C2C[C@H]3[C@@H](CC=C4C[C@@H](O)CC[C@@]43C)[C@@H]2CC[C@]12O[C@@H]1C[C@H](C)CN[C@H]1[C@H]2C [UM0133766:02, Cyclopamine] | 2.445 | 
23 | COC(=O)CC(NC(=O)OC(C)(C)C)C(=O)CF [UM0141423:01, Boc-D-FMK] | 1.796 | 
24 | COc1cc2cc(c1Cl)N(C)C(=O)C[C@H](OC(=O)C(C)C)[C@]1(C)O[C@@H]1[C@H](C)[C@@H]1C[C@@](O)(NC(=O)O1)[C@H](OC)/C=C/C=C(\C)C2 [UM0141517:01, Ansamitocin P-3] |  | Inh (PKA): 6.121%
25 | CCN1CCCC1CNC(=O)c1cc(S(=O)(=O)CC)c(N)cc1OC (stereo not drawn) [UM0142272:01, Amisulpride] | 0.7269 | 
26 | NC(=O)c1ccc(I)c([N+](=O)[O-])c1 [UM0141736:01, Iniparib (BSI-201)] | 1.39 | 

Now from value to molecule, other results behind:

Row | Inh (PKA) [1] [%] | Structure (SMILES) | other results
27 | 11.58 | Cc1ccc(NC(=O)Nc2cc(C(F)(F)F)ccc2F)cc1Nc1ccc2c(c1)NC(=O)/C2=C\c1ccc[nH]1 [UM0141977:01, GNF-5837] | 
28 | 10.35 | C[C@@H](Oc1cc(-c2cnn(C3CCNCC3)c2)cnc1N)c1c(Cl)ccc(F)c1Cl [UM0141505:01, (R)-Crizotinib] | 
29 | 2.691 | CCOC(=O)c1ccc(OC(=O)CCCCCNC(=N)N)cc1 [UM0119043:03, Gabexate mesylate] | 
30 | 48.77 | Nc1nccc(-c2c(-c3ccc(F)cc3)ncn2C2CCCCC2)n1 [UM0141603:01, PF-670462] | 
31 | 23.55 | CCCCNc1ncc2c(-c3ccc(CN4CCN(C)CC4)cc3)cn([C@H]3CC[C@H](O)CC3)c2n1 [UM0142820:01, UNC2025] | 
32 | 8.149 | CNC(=O)c1nn(C)c2c1C(C)(C)Cc1cnc(Nc3ccc(N4CCN(C)CC4)cc3)nc1-2 [UM0142065:01, PHA-848125] | 
33 | 8.434 | O=c1ncn2nc(Sc3ccc(F)cc3F)ccc2c1-c1c(Cl)cccc1Cl [UM0142117:01, VX-745] | 
34 | 1.298 | Cn1c(Nc2ccc(C(F)(F)F)cc2)nc2cc(Oc3ccnc(-c4ncc(C(F)(F)F)[nH]4)c3)ccc21 [UM0141982:01, RAF265] | 
35 | 23.02 | Clc1ccccc1CN1CCc2sccc2C1 [UM0118440:03, Ticlopidine HCl] | 
36 | 65.39 | COc1cc(F)c(F)c(Nc2ccc(I)cc2F)c1NS(=O)(=O)C1(C[C@H](O)CO)CC1 [UM0142191:01, Refametinib] | 
37 | 68.15 | CCOc1ccn(-c2ccc(F)cc2)c(=O)c1C(=O)Nc1ccc(Oc2ccnc(N)c2Cl)c(F)c1 [UM0141902:01, BMS-777607] | 
38 | 1.727 | Nc1nc(=O)c2c([nH]1)NCC(CNc1ccc(C(=O)N[C@@H](CCC(=O)O)C(=O)O)cc1)N2C=O (stereo partly drawn) [UM0141462:01, Leucovorin Calcium] | 
39 | 3.567 | COc1cc2c(Oc3ccc(NC(=O)C4(C(=O)Nc5ccc(F)cc5)CC4)cc3F)ccnc2cc1OCCCN1CCOCC1 [UM0141490:01, Foretinib (GSK1363089)] | 
40 | 15.47 | Oc1nc(-c2ccc(C(F)(F)F)cc2)nc2c1CSCC2 [UM0141417:01, XAV-939] | 
41 | -0.5181 | CC(=O)Nc1ccc(O)cc1 [UM0142525:01, Acetaminophen] | 
42 | 33.46 | C=CC(=O)Nc1cccc(Oc2nc(Nc3ccc(N4CCN(C)CC4)cc3)ncc2Cl)c1 [UM0142142:01, WZ3146] | 

Row | Inh (PKA) [1] [%] | Structure (SMILES) | other results
43 | 2.774 | CCC[S+]([O-])c1ccc2[nH]c(NC(=O)OC)nc2c1 (stereo not drawn) [UM0142387:01, Albendazole Oxide] | 
44 | 1.846 | c1cc(OCCN2CCCCC2)cc(-c2n[nH]c3ccc(-c4nnc[nH]4)cc23)c1 [UM0142189:01, CC-401] | 
45 | 3.342 | O=C(NC[C@@H]1CN(c2ccc(N3CCOCC3=O)cc2)C(=O)O1)c1ccc(Cl)s1 [UM0141508:01, 5-R-Rivaroxaban] | 
46 | 6.579 | FC(F)(F)Oc1ccc(-c2ccc3nnc(C(F)(F)F)n3c2)cc1 [UM0142666:01, GS967] | 
47 | 18.3 | CCOc1cc(C(C)(C)C)ccc1C1=N[C@@](C)(c2ccc(Cl)cc2)[C@@](C)(c2ccc(Cl)cc2)N1C(=O)N1CCN(CCCS(C)(=O)=O)CC1 [UM0141616:01, RG7112] | 
48 | 13.43 | CC1(COc2ccc3c(c2)ncn3-c2ccc3cccc(N4CCC(N)CC4)c3n2)COC1 [UM0139425:02, Crenolanib (CP-868596)] | 
49 | 24.97 | Cc1cnc(Nc2ccc(OCCN3CCCC3)cc2)nc1Nc1cccc(S(=O)(=O)NC(C)(C)C)c1 [UM0136753:02, TG101348 (SAR302503)] | 
50 | 17.81 | Cc1nc(-c2ccc(OCC(C)C)c(C#N)c2)sc1C(=O)O [UM0141917:01, Febuxostat] | 
51 | 3.965 | C[C@@H]1CCO[C@H]2Cn3cc(C(=O)NCc4ccc(F)cc4F)c(=O)c(O)c3C(=O)N12 [UM0141694:01, S/GSK1349572] | 
52 | 6.12 | CC(=O)Oc1cc(C(F)(F)F)ccc1C(=O)O [UM0118728:03, Triflusal] | 
53 | 21.52 | O=C(Nc1c(Cl)cncc1Cl)c1ccc(OC(F)F)c(OCC2CC2)c1 [UM0141779:01, Roflumilast] | 
54 | 45.3 | Cc1ccc(F)c(NC(=O)Nc2ccc(-c3cccc4[nH]nc(N)c34)cc2)c1 [UM0141489:01, Linifanib (ABT-869)] | 
55 | 19.65 | COc1ccc(C(=O)Nc2sc3c(c2C(N)=O)CCCC3)cc1OC [UM0127852:02, TCS 359] | 
56 | 24.58 | O=C1OC2(c3ccccc31)c1ccc(O)c(O)c1Oc1c2ccc(O)c1O [UM0142786:01, Gallein] | 
57 | 10.73 | Cc1ccc(-n2nc(C(C)(C)C)cc2NC(=O)Nc2ccc(OCCN3CCOCC3)c3ccccc23)cc1 [UM0127947:02, BIRB 796 (Doramapimod)] | 
